# {FAM} = fluorescein (FAM) label; {NH2} = amine modification
# Legend:
# [1] = activation temperature of the retro Diels-Alder reaction of the linker groups (FIG. 7); type: physicochemical; conditions: linker group in FIG. 7
# Source text: (§1) For different Diels-Alder cyclo-addition products, the retro (or reverse) Diels-Alder reaction will occur or be initiated at different temperatures (i.e., different activation temperatures). Thus, by varying the Diels-Alder cyclo-addition product in the linker group, breaking up or cleaving of the Diels-Alder cyclo-addition product (and concomitant decoupling of the therapeutic species and the nanoparticle) can be “tuned” to occur at different temperatures.
# [2] = temperature dependency of retro Diels-Alder reaction (release of fluorescent si-RNA) for linker connected to a nanoparticle (FIGS. 10, 11); type: physicochemical; conditions: for cleavage of the linker: linker connected to a nanoparticle
# Source text: as §1
# Specifically, to conjugate a FAM-tagged RFP antisense siRNA mimic, an EDC coupling protocol was used with […] of an aqueous EDC/NHS (100 mM) stock solution added to each of the three resuspended nanoparticle aliquots prepared in Example 3, followed by […] of the amine-terminated siRNA (4 mM), After 24 h, the particles were again centrifuged, washed, and resuspended in DI water. A control sample in which cysteamine modified SNPs were linked to the 6-maleimidohexanoic acid via EDC coupling was also prepared, similarly to the pyrrole-based reaction described above, but without addition of the diene, to test the stability of both the amide and thiol linkages. Conjugation of the linkers and siRNA was tested by chemically reducing the Ag-linker bond using TCEP reagent (tris(2-carboxyethyl)phosphine hydrochloride) and measuring FAM intensity of the supernatant.
# The products of these reactions (pyrrole, furan, and thiophene-based) were analyzed. For example, the temperature dependency of the retro Diels Alder reaction (and release of the fluorescent si-RNA) was evaluated. […] The fluorescence intensity of the treated sample is assumed to indicate maximum release (due to cleavage/retro (or reverse) Diels Alder reaction).
# PAM2 skin cancer cells = assay: anti-cancer effects of released miRN-148b in PAM2 cells (FIG. 23); type: cell-based; conditions: PAM2 cells transfected, 7 days after transfection (positive control)
# Description: (§2) The anti-cancer effects towards PAM2 skin cancer cells of miRN-148b released from compositions described herein were explored using a furan-based linker conjugated with a FAM-tagged miRN-148b and an SNP. The furan-based linker composition was prepared according to Examples 1-5. SNPs surface-modified with miRNA mimics via Diels-Alder linkage, were sterilized in 70/30% ethanol and water solution prior to washing and resuspension in RNAse-free water. Subsequently, appropriate nanoparticle solution volumes were added, based on required dosages, to the adherent monolayer PAM2 cells at optimal seeding densities, immersed in appropriate cell culture media. Transfection was allowed to occur at 37° C. for 24 h.
# FIG. 23A is a negative control showing fluorescence of the PAM2 cells in the presence of silver nanoparticles prepared in accordance with Example 1 after 7 days. FIG. 23B is a positive control showing PAM2 cells transfected with FAM-tagged miRN-148b 7 days after transfection.
# [3] = system: Ras-induced keratinocyte lung cancer cells; assay: anti-cancer effects of released miRN-148b in Ras-induced keratinocyte cells (FIG. 24); type: cell-based; conditions: keratinocyte cells transfected with 100 nM, after 7 days
# Description: as §2, with “Ras-induced keratinocyte lung” for “PAM2 skin”
# FIG. 24A is a negative control of keratinocyte cells in the absence of the composition and FAM-tagged miRN-148b after 7 days. FIG. 24B is a positive control of keratinocyte cells after 7 days, which have been transfected with FAM-tagged miRN-148b (100 nM).
compound,measurement,setting,value
O=C(O)CCCCCN1C(=O)C2C3C=CC(C(=O)O)(N3)C2C1=O (centres unmarked) [pyrrole-based linker group],activation temperature of the retro Diels-Alder reaction,[1],40 °C
O=C(O)CCCCCN1C(=O)C2C3C=CC(CS)(O3)C2C1=O (centres unmarked) [furan-based linker group],activation temperature of the retro Diels-Alder reaction,[1],60 °C
same,speed of cleavage of the linker compared with the thiophene-based linker,[2]; FIGS. 10 and 11,faster at lower temperatures
same,cleavage of the linker,"[2]; after 1 hour of heating, at 60° C.",25%
O=C(O)CCCCCN1C(=O)C2C3C=CC(CS)(S3)C2C1=O (centres unmarked) [thiophene-based linker group],activation temperature of the retro Diels-Alder reaction,[1],around 80 °C
same,cleavage of the linker,"[2]; after 2 hours of heating at 37° C., 60° C., and 80° C.",not observed until 80 °C
"FAM-tagged miRN-148b: 3′amine/5′-FAM modified single stranded siRNA, sequence UUGGAGCCGUACUGGAACUUG (5' {FAM}, 3' {NH2}, sugars by position and backbone not given here)",cell proliferation and growth,PAM2 skin cancer cells,reduced cell proliferation and growth
same,cell growth,[3],normal cell behavior
